Data published in patent publication US7521536B2, “Glutamate transporter associated protein” (The Johns Hopkins University School of Medicine, priority 1999, dated 2009).

B1: p115: RhoGEF that selectively activates Rho (protein)
chain: MEDFARGAASPGPSRPGLVPVSIIGAEDEDFENELETNSEEQNSQFQSLEQVKRRPAHLMALLQHVALQFEPGPLLCCLHADMLGSLGPKEAKKAFLDFYHSFLEKTAVLRVPVPPNVAFELDRTRADLISEDVQRRFVQEVVQSQQVAVGRQLEDFRSKRLMGMTPWEQELAQLEAWVGRDRASYEARERHVAERLLMHLEEMQHTISTDEEKSAAVVNAIGLYMRHLGVRTKSGDKKSGRNFFRKKVMGNRRSDEPAKTKKGLSSILDAARWNRGEPQVPDFRHLKAEVDAEKPGATDRKGGVGMPSRDRNIGAPGQDTPGVSLHPLSLDSPDREPGADAPLELGDSSPQGPMSLESLAPPESTDEGAETESPEPGDEGEPGRSGLELEPEEPPGWRELVPPDTLHSLPKSQVKRQEVISELLVTEAAHVRMLRVLHDLFFQPMAECLFFPLEELQNIFPSLDELIEVHSLFLDRLMKRRQESGYLIEEIGDVLLARFDGAEGSWFQKISSRFCSRQSFALEQLKAKQRKDPRFCAFVQEAESRPRCRRLQLKDMIPTEMQRLTKYPLLLQSIGQNTEEPTEREKVELAAECCREILHHVNQAVRDMEDLLRLKDYQRRLDLSHLRQSSDPMLSEFKNLDITKKKLVHEGPLTWRVTKDKAVEVHVLLLDDLLLLLQRQDERLLLKSHSRTLTPTPDGKTMLRPVLRLTSAMTREVATDHKAFYVLFTWDQEAQIYELVAQTVSERKNWCALITETAGSLKVPAPASRPKPRPSPSSTREPLLSSSENGNGGRETSPADARTERILSDLLPFCRPGPEGQLAATALRKVLSLKQLLFPAEEDNGAGPPRDGDGVPGGGPLSPARTQEIQENLLSLEETMKQLEELEEEFCRLRPLLSQLGGNSVPQPGCT

Legend:
[1] = test system: GTRAP3-18; assay: retinoic acid regulation of GTRAP3-18 and EAAC1-mediated glutamate transport in HEK293 cells; assay type: cell-based
From the text: Human GTRAP3-18 (JWA protein) was originally identified as a retinoic acid responsive gene. […] The loss of transport activity is not due to changes in EAAC1 protein level (FIG. 9A) or the cellular membrane localization of EAAC1 protein by retinoic acid as examined by fluorescent microscopy. To confirm that loss of transport activity was specifically due to GTRAP3-18 and not by other factors induced by retinoic acid or direct effects on EAAC1, a truncated EAAC1 cDNA, lacking the last 93 amino acids, was constructed. The truncation corresponded to the region used as bait in yeast two-hybrid screening, and was not able to interact with GTRAP3-18. Nevertheless, after transient expression in HEK293 cells, the truncated EAAC1 transported glutamate. […] Thus, the loss of transport activity by retinoic acid was the result of GTRAP3-18 induction. […] This could reflect lack of natural inhibition of the truncated protein EAAC1 by endogenous GTRAP3-18—results similar to the effects of GTRAP3-18 antisense treatment (FIG. 9E).

[2] = molecular target: T1, Rho (Homo sapiens, UniProt P61586); assay: guanine nucleotide exchange assay (GTPγS binding to small G proteins); assay type: biochemical; conditions: GST-RhoA, GST-Cdc42 and GST-Rac, 10 min at 30° C.
T1 construct: made in house; host or cells: bacterial cells
Method: Guanine nucleotide exchange assay. Small G proteins GST-RhoA, GST-CDC42 and GST-Rac were expressed in bacterial cells and affinity purified to ˜80% purity using a glutathione column. Twenty pmoles of each protein were incubated with 100 pmoles GTPγS for 10 min at 30° C. with varying concentrations of full-length GTRAP4-48 or p115. The binding reactions were filtered through BA-85 nitrocellulose and the amount of GTPγS bound to small G protein was quantitated by scintillation counting of the dried filters. The amount of GTPγS that bound to GST-RhoA, GST-Cdc42 and GST-Rac in the presence of full-length GTRAP4-48 or p115 was measured.

T1 sequence (P61586 whole entry): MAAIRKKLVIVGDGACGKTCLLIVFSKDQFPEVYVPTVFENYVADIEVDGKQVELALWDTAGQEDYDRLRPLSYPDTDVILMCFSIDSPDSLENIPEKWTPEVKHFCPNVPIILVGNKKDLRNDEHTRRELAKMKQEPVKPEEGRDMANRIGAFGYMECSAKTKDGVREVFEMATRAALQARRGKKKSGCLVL

Molecule | non-toxic dose range [1] [µM] | guanine nucleotide exchange activity [2]
CC1=C(/C=C/C(C)=C/C=C/C(C)=C/C(=O)O)C(C)(C)CCC1 [Retinoic acid, retinoic acid] | 1 to 10 | 
B1 |  | specific guanine nucleotide exchange activity for Rho
